{"source": "patent US4954156A", "about": "“N,N-dihalo-2-imidazolidinones and N-halo-2-oxazolidinones as urease and nitrification inhibitors” (Tennessee Valley Authority, priority 1989, dated 1990)", "key": {"[1]": {"system": "soil urease (urease-active Hastings silt loam soil)", "experiment": "Banded soil system urease inhibition test (Hastings silt loam)", "conditions": "410 mg urea + 41 mg inhibitor", "protocol": "(§1) Embodiment 1: Urease activity of inhibitor test compounds may be evaluated either in aqueous or in soil systems. When aqueous systems are used, urea plus a test compound with possible urease inhibition activity and relatively pure urease enzyme are incubated together to determine the effects of the test compound on urease-catalyzed hydrolysis of urea. When soil systems are used, urea and the test compound are added to moist soil, and the urease enzyme is supplied from the soil. The main disadvantage of using soil systems is that the true activity of test compounds may be masked because of reactions between the test compound and soil. Thus, basic studies for understanding chemical structure-activity relationships are usually done in aqueous systems.\nSoil System Test Procedure: The soil system test procedure used was a modification of the previous procedures of other researchers L. A. Douglas and J. M. Bremner, Soil Biol. Biochem. 3, 309-315 (1971) and J. M. Bremner and R. L. Mulvaney, \"Urease Activity in Soils,\" Soil Enzymes 5, R. G. Burns, editor, Academic Press, 149-195 (1978)]. In this modified procedure powdered mixtures of urea and test compounds were applied in narrow bands in the soil rather than being mixed throughout the soil. The banded configuration also results in concentration gradients of urea, urea hydrolysis products, test compounds, and test compound decomposition products similar to those in the immediate vicinity of urea granules containing the test compounds. Another advantage of the banded configuration compared with mixing throughout the soil is that slightly soluble test compounds can be easily band applied, whereas it is difficult to achieve a known degree of mixing of a small quantity of slightly soluble test compound with soil. The banded configuration also enables testing for urease inhibition under realistic soil conditions prior to the development of techniques for cogranulating a wide range of test compounds with urea.\nA detailed description of the banded soil testing procedure follows. Urease-active soil (Hastings silt loam) was moistened to a moisture content of 20 percent dry weight basis) and preincubated at room temperature for two days. Plexiglas containers (6×6×6 cm) were half filled with soil and packed to a bulk density of 1.0 g/cm . Urea (410 mg) or urea (410 mg) plus inhibitor (41 mg, thoroughly mixed with the urea) was distributed in a narrow band about 0.5 cm wide and 6 cm long on the soil surface. The containers then were filled with soil, again packing to a bulk density of 1.0 g/cm^3. The containers were incubated at 25° C. for the desired reaction period, after which the containers were frozen to about -5° C. to stop urea hydrolysis. Immediately prior to extracting the remaining urea from the soil, said soil was allowed to thaw. Soil from each container was thoroughly mixed, and a 10-g sample was extracted with 100 ml of 2 M KCl containing phenylmercuric acetate to prevent urea hydrolysis during handling [L. A. Douglas and J. M. Bremner, Soil. Sci. Soc. Am. Proc. 34, 859-862 (1970)]. Urea in the extracts was determined colorimetrically as a measure of unhydrolyzed urea and the results expressed as percent unhydrolyzed urea-N.\n^a The plexiglas containers measured 6 × 6 × 6 cm.\nHastings silt loam soil was utilized and packed to a bulk density of 1\ngm/cm^3 dry basis. The soil was wet to near field capacity (20%\nmoisture) and 260 g of wetted soil (216 g dry soil) was added per\ncontainer. The containers were packed half full, urea and inhibitor were\nadded, and the remaining soil was added. The amount of urea added = 410 m"}, "[2]": {"biological_target": "purified Jack Bean urease (Canavalia ensiformis, UniProt P07374)", "sequence (P07374 whole entry, looked up)": "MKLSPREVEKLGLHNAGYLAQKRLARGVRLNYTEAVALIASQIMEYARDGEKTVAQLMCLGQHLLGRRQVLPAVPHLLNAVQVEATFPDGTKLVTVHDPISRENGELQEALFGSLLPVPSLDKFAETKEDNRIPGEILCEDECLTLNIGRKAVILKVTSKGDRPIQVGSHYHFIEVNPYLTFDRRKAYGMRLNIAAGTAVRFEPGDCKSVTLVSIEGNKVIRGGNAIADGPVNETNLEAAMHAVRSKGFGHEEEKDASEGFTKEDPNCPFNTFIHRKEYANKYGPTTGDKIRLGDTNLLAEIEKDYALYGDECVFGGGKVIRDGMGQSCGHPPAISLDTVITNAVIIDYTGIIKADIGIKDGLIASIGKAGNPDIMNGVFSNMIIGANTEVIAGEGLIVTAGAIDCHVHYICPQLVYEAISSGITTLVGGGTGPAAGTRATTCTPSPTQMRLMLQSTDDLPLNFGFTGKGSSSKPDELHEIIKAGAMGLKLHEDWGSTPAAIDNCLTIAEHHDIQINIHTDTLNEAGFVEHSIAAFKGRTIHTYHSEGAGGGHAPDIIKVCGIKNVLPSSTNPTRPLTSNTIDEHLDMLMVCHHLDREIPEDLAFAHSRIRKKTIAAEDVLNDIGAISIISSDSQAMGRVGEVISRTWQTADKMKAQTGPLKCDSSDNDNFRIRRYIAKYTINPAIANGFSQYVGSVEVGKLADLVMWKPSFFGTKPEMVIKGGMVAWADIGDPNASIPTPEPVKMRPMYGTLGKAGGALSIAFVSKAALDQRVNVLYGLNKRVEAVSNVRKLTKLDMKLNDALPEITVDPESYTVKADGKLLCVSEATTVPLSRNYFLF", "experiment": "Aqueous system (pH stat) urease inhibition test", "type": "biochemical", "conditions": "25° C", "protocol": "as §1\nAqueous System (pH Stat) Test Procedure: The aqueous system urease inhibition tests were conducted at 25° C using purified Jack Bean urease enzyme, 50,000-80,000 units per gram, a unit of urease will liberate 1 umole of NH3 from urea per minute at pH 7.0 at 25° C.\nAn appropriate amount of inhibitor [such as 37.0 uL (microliters) of a 1.169×10^(-3) M (moles/liter) inhibitor solution] and 100 uL of a solution of 13.9130 mg Jack Bean urease enzyme in 10.00 mL of water were diluted to 25.00 mL. This combined solution was allowed to sit undisturbed at 23° C. for twenty (20) minutes. Then 20.0 uL of a preservative solution was added to prevent degradation of the urease enzyme during the course of the experiment. The preservative solution contained 5.655×10^-4 moles/liter ethylenediaminetetraacetic acid (disodium salt) and 1.166×10^-3) moles/liter dithiothreitol.\nImmediately after the addition of the preservative solution to the inhibitor/urease solution, 800 uL of a 0.1246 M urea solution was added and a computer assisted titrimeter was started. This titrimeter maintained a constant pH of 6.97 during the course of the experiment by neutralizing the ammonia (resulting from urease hydrolysis of urea) with 0.01142 M hydrochloric acid (HCl). The volume (measured to 0.001 mL) of HCl added was automatically recorded every 15 seconds for up to 20.0 minutes or until a total volume of 2.500 mL of HCl was added.\nExperiments also were conducted without inhibitor (blank) and with the inhibitor PPDA for comparison. The experiments were replicated, and the percent inhibition for each of the inhibitors at the various concentrations was calculated as follows:\n% inhibition=(kinhibitor /kblank)×100 (4)\nwhere kinhibitor and kblank are the average rates of HCl addition for the inhibitor and blank experiments, respectively. The rates of HCl addition were calculated by linear regression of the titration curves."}, "[3]": {"system": "nitrification of ammonium nitrogen in soil", "experiment": "Soil nitrification inhibition test (Mountainview silt loam, banded)", "conditions": "for % inhibition (nitrification) / Net mg NO2N / Net mg NO3N: 25° C, 410 mg urea + 41 mg inhibitor", "protocol": "Embodiment 2: The N-Halamine compounds were tested for nitrification inhibition using the soil testing procedure described below.\nMountainview silt loam soil was screened through a 2 mm sieve. Plexiglas containers (8×8×6 cm) were packed half full with the soil and packed to a bulk density of 1.0 g/cm^3 and wetted to field capacity (approximately 20 weight percent moisture). The urea 410 mg per container) and inhibitor (41 mg per container) were added in a narrow band (0.5 cm wide X 6 cm long), and additional soil was added to fill the containers. The total amount of dry soil added was 384 g. The containers were incubated at 25° C. During incubation the containers were checked periodically for moisture loss and additional water added as needed to maintain moisture levels.\nThe individual containers were removed from the incubator at 1, 2, 3, 4, and 5 week intervals. After removal from the incubator the contents of the container were transferred to a plastic bag and thoroughly mixed. A 10-g sample of soil (dry basis) was taken from the bag and extracted with 100 ml of 2 N KCL. The extract was filtered through Whatman #41 filter paper and refrigerated until analyzed. Samples were analyzed for NO3-N- NO2-N- and urea-N using a colorimetric procedure. Some samples also were analyzed for NH4-N.\nThe percent nitrification inhibition was calculated according to the method of Bundy and Bremner [G. L. Bundy and J. M. Bremner, Soil Sci. Soc. Am. Proc. 37, 396-398 (1973)]\n% nitrification inhibition=[(C-S)/C]×100\nwhere C=net amount of NO3-N produced in the control (no inhibitor added), and S=net amount of NO3-N produced in the inhibitor treated sample.\n^a Concentrations are in net mg/container. All containers had 384 g\nsoil (dry), 410 mg urea (188.6 mg N) and 41 mg inhibitor. Samples were\nextracted 10 g → 100 mls 2N KCl. The formulas used for calculation\nwhere C = net NO3N produced in control (no inhibitor), S = net\nNO3N produced in inhibitor treated sample, net NO3N =\n(NO3N) - (soil NO3N), and net NO2N = (NO2N) - (soil\nNO2N). Values are averages of two replicate samples."}}, "note": "“And” between values parts separate entries of the source, which are not always exact repeats. Identical values can stand only once."}
{"smiles": "CC1(C)N(Cl)C(=O)N(Br)C1(C)C", "note": "[ABC, 1-bromo-3-chloro-4,4,5,5-tetramethyl-2-imidazolidinone]", "values": [{"measurement": "% unhydrolyzed urea-N", "setting": "[1]; 3 days incubation at 25° C", "result": "84.71% and 84.7%"}, {"measurement": "PPM urea-N", "setting": "[1]; 3 days incubation at 25° C", "result": 75.0, "unit": "PPM"}, {"measurement": "% unhydrolyzed urea-N", "setting": "[1]; 6 days incubation at 25° C", "result": "53.65% and 53.7%"}, {"measurement": "PPM urea-N", "setting": "[1]; 6 days incubation at 25° C", "result": 47.5, "unit": "PPM"}, {"measurement": "% urease inhibition", "setting": "[2]; inhibitor 0.432 x 10^-8 moles/experiment", "result": 93, "unit": "%"}, {"measurement": "% urease inhibition", "setting": "[2]; inhibitor 1.430 x 10^-8 moles/experiment", "result": 100, "unit": "%"}, {"measurement": "% inhibition (nitrification)", "setting": "[3]; 1 week", "result": 100.0, "unit": "%"}, {"measurement": "Net mg NO2N", "setting": "[3]; 1 week", "result": -0.05, "unit": "mg/container"}, {"measurement": "Net mg NO3N", "setting": "[3]; 1 week", "result": 0.0, "unit": "mg/container"}, {"measurement": "% inhibition (nitrification)", "setting": "[3]; 2 weeks", "result": 100.0, "unit": "%"}, {"measurement": "Net mg NO2N", "setting": "[3]; 2 weeks", "result": 0.04, "unit": "mg/container"}, {"measurement": "Net mg NO3N", "setting": "[3]; 2 weeks", "result": 0.0, "unit": "mg/container"}, {"measurement": "% inhibition (nitrification)", "setting": "[3]; 3 weeks", "result": 100.0, "unit": "%"}, {"measurement": "Net mg NO2N", "setting": "[3]; 3 weeks", "result": 0.08, "unit": "mg/container"}, {"measurement": "Net mg NO3N", "setting": "[3]; 3 weeks", "result": 0.0, "unit": "mg/container"}, {"measurement": "% inhibition (nitrification)", "setting": "[3]; 4 weeks", "result": 100.0, "unit": "%"}, {"measurement": "Net mg NO2N", "setting": "[3]; 4 weeks", "result": 1.68, "unit": "mg/container"}, {"measurement": "Net mg NO3N", "setting": "[3]; 4 weeks", "result": 0.0, "unit": "mg/container"}, {"measurement": "% inhibition (nitrification)", "setting": "[3]; 5 weeks", "result": 99.6, "unit": "%"}, {"measurement": "Net mg NO2N", "setting": "[3]; 5 weeks", "result": 1.67, "unit": "mg/container"}, {"measurement": "Net mg NO3N", "setting": "[3]; 5 weeks", "result": 0.8, "unit": "mg/container"}, {"measurement": "Nitrite accumulation in the soil", "setting": "[3]; during the 5 weeks incubation, greater than with dicyandiamide", "result": "well within plant tolerance levels"}, {"measurement": "percent nitrification inhibition", "setting": "[3]; separate experiment (Examples VII, IX): sampled only at end of 5-week incubation, no dicyandiamide comparison", "result": 85.6, "unit": "%"}]}
